In PubChem BioAssay (NCI):
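Protocol summary: plate cells (96-well), add compound at 5 concentrations, incubate 48 h, interpolate endpoints linearly. TGI: concentration producing complete growth inhibition.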 Where a SMILES comes first, the peptide text is derived from it. [ ]: non-standard residue; d: D form. The star is where a group is joined. ξ: configuration not given here. ξF = NC(Cc1ccccc1)C(=O)O; Cbz = O=C(OCc1ccccc1)*; Aib = CC(C)(N)C(=O)O; NHNH2 = NN*

Experiments:
Assay in all cases: DTP human tumour cell line panel, 48 h
NCI-H522 lung = system: NCI-H522 lung
OVCAR-3 ovarian = system: OVCAR-3 ovarian
MDA-MB-435 = system: MDA-MB-435
NCI-H460 lung = system: NCI-H460 lung
CAKI-1 renal = system: CAKI-1 renal
M14 melanoma = system: M14 melanoma
LOX IMVI melanoma = system: LOX IMVI melanoma
T-47D breast = system: T-47D breast
UACC-62 melanoma = system: UACC-62 melanoma
DU-145 prostate = system: DU-145 prostate
HOP-62 NSCLC = system: HOP-62 NSCLC
MOLT-4 leukemia = system: MOLT-4 leukemia
SK-OV-3 ovarian = system: SK-OV-3 ovarian
SF-268 CNS = system: SF-268 CNS
HCT-15 colon = system: HCT-15 colon
MDA-N = system: MDA-N
UO-31 renal = system: UO-31 renal
SW-620 colon = system: SW-620 colon
ACHN renal = system: ACHN renal
RXF 393 renal = system: RXF 393 renal
MALME-3M melanoma = system: MALME-3M melanoma
K-562 leukemia = system: K-562 leukemia
NCI/ADR-RES ovarian = system: NCI/ADR-RES ovarian
EKVX NSCLC = system: EKVX NSCLC
TK-10 renal = system: TK-10 renal
OVCAR-8 ovarian = system: OVCAR-8 ovarian
OVCAR-4 ovarian = system: OVCAR-4 ovarian
A498 renal = system: A498 renal
SN12C renal = system: SN12C renal
BT-549 breast = system: BT-549 breast
COLO 205 colon = system: COLO 205 colon
HS 578T breast = system: HS 578T breast
OVCAR-5 ovarian = system: OVCAR-5 ovarian
U251 CNS = system: U251 CNS
MDA-MB-231 breast = system: MDA-MB-231 breast
NCI-H23 lung = system: NCI-H23 lung
SK-MEL-2 melanoma = system: SK-MEL-2 melanoma
IGROV1 ovarian = system: IGROV1 ovarian
SK-MEL-5 melanoma = system: SK-MEL-5 melanoma
786-0 renal = system: 786-0 renal
KM12 colon = system: KM12 colon
SNB-19 CNS = system: SNB-19 CNS
HOP-92 NSCLC = system: HOP-92 NSCLC
PC-3 prostate = system: PC-3 prostate
NCI-H226 lung = system: NCI-H226 lung
SNB-75 CNS = system: SNB-75 CNS
RPMI-8226 leukemia = system: RPMI-8226 leukemia
CCRF-CEM leukemia = system: CCRF-CEM leukemia
MCF7 breast = system: MCF7 breast
SK-MEL-28 melanoma = system: SK-MEL-28 melanoma
SF-539 CNS = system: SF-539 CNS
A549 NSCLC = system: A549 NSCLC
HT29 colon = system: HT29 colon
SF-295 CNS = system: SF-295 CNS
UACC-257 melanoma = system: UACC-257 melanoma
HCT-116 colon = system: HCT-116 colon
HCC-2998 colon = system: HCC-2998 colon
HL-60(TB) leukemia = system: HL-60(TB) leukemia
SR leukemia = system: SR leukemia

Measured: TGI

CC(C)(NC(=O)OCc1ccccc1)C(=O)NC(Cc1ccccc1)C(=O)NN (stereo not given) (Cbz-[Aib]-[ξF]-NHNH2)
not listed: HCT-116 colon | HCC-2998 colon | HL-60(TB) leukemia | SR leukemia
> 100 µM: all other assays above

c1cc(NNc2cccc(-c3nn[nH]n3)c2)cc(-c2nn[nH]n2)c1
not listed: MOLT-4 leukemia | CCRF-CEM leukemia | HCC-2998 colon | HL-60(TB) leukemia | SR leukemia
> 100 µM: all other assays above

NC(Cc1ccc(OCc2ccccc2)cn1)C(=O)O (stereo not given)
not listed: M14 melanoma | T-47D breast | UACC-62 melanoma | SK-OV-3 ovarian | OVCAR-4 ovarian | SK-MEL-2 melanoma | HOP-92 NSCLC | SNB-75 CNS
> 100 µM: all other assays above
